Patent US10202658B2, “Methods for determining hypersusceptibility of HIV-1 to non-nucleoside reverse transcriptase inhibitors” (Monogram Biosciences, Inc., priority 2005, dated 2019)

System: HIV-1 clinical isolates grouped by RT mutations
Experiment: Pairwise comparison of NNRTI fold change between groups of clinical isolates (Student's T-test, Bonferroni's Multiple Comparison Test)
Type: cell-based
Protocol: This example provides methods and compositions for identifying mutations that correlate with hypersusceptibility to a NNRTI. Resistance test vectors were constructed and used as described in Example 1. Resistance test vectors derived from patient samples or clones derived from the resistance test vector pools were tested in a resistance assay to determine accurately and quantitatively the relative EFV, DLV, or NVP resistance or susceptibility compared to the median observed resistance or susceptibility.
To identify mutations associated with NNRTI hypersusceptibility, the following analysis was performed. […] The TAMs referenced in. Table 1 include M41L, D67N, K70R, L210W, T215FY, and K219X, while the NAMs referenced include K65R, T69X, L74IV, V75X, and M184IV. Isolates without NRTI, NNRTI or PI mutations served as a wild type (WT) reference group. Further comparison groups comprised isolates with three TAMS including T215Y (+/−H208Y, +/−V118I) or three TAMS including K70R. Scatter plots and statistical tests (See FIGS. 1-6) were generated using Prism 4.0 (GraphPad, San Diego, Calif.)
In addition, a pairwise comparison between two sets of data was conducted using Bonferroni's Multiple Comparison Test using the Prism 4.0 software. The results of the comparison are presented in Tables 2, 3, and 4, appended to the end of this document. Samples with K65R, K65R+M184V, or 2 TAMs in combination with T215Y had over 40% with EFV FC<0.4.

O=C1Nc2ccc(Cl)cc2[C@@](C#CC2CC2)(C(F)(F)F)O1 [EFV, efavirenz]
Mean Diff. of fold change (1 NAM vs 2 NAMs): 0.1722 | Mean Diff. of fold change (1 NAM vs 3 NAMs): 0.1256 | Mean Diff. of fold change (1 NAM vs K65R): 0.1565 | Mean Diff. of fold change (1 NAM vs K65R + M184V): 0.2694 | Mean Diff. of fold change (1 NAM vs K70R_3_TAMs): −0.02778 | Mean Diff. of fold change (1 NAM vs M184V): 0.001657 | Mean Diff. of fold change (1 NAM vs T69): −0.09534 | Mean Diff. of fold change (1 NAM vs T215Y_3_TAMs): 0.2651 | Mean Diff. of fold change (1 NAM vs T215Y_3_TAMs_118): 0.3291 | Mean Diff. of fold change (1 NAM vs T215Y_3_TAMs_208): 0.3294 | Mean Diff. of fold change (1 NAM vs T215Y_3_TAMs_no118): 0.2225 | Mean Diff. of fold change (1 NAM vs T215Y_3_TAMs_no208): 0.2549 | Mean Diff. of fold change (2 NAMs vs 3 NAMs): −0.04654 | Mean Diff. of fold change (2 NAMs vs K65R): −0.01562 | Mean Diff. of fold change (2 NAMs vs K65R + M184V): 0.09723 | Mean Diff. of fold change (2 NAMs vs K70R_3_TAMs): −0.1999 | Mean Diff. of fold change (2 NAMs vs M184V): −0.1705 | Mean Diff. of fold change (2 NAMs vs T69): −0.2675 | Mean Diff. of fold change (2 NAMs vs T215Y_3_TAMs): 0.09297 | Mean Diff. of fold change (2 NAMs vs T215Y_3_TAMs_118): 0.1569 | Mean Diff. of fold change (2 NAMs vs T215Y_3_TAMs_208): 0.1573 | Mean Diff. of fold change (2 NAMs vs T215Y_3_TAMs_no118): 0.05035 | Mean Diff. of fold change (2 NAMs vs T215Y_3_TAMs_no208): 0.08272 | Mean Diff. of fold change (3 NAMs vs K65R): 0.03092 | Mean Diff. of fold change (3 NAMs vs K65R + M184V): 0.1438 | Mean Diff. of fold change (3 NAMs vs K70R_3_TAMs): −0.1534 | Mean Diff. of fold change (3 NAMs vs M184V): −0.124 | Mean Diff. of fold change (3 NAMs vs T69): −0.221 | Mean Diff. of fold change (3 NAMs vs T215Y_3_TAMs): 0.1395 | Mean Diff. of fold change (3 NAMs vs T215Y_3_TAMs_118): 0.2035 | Mean Diff. of fold change (3 NAMs vs T215Y_3_TAMs_208): 0.2038 | Mean Diff. of fold change (3 NAMs vs T215Y_3_TAMs_no118): 0.09689 | Mean Diff. of fold change (3 NAMs vs T215Y_3_TAMs_no208): 0.1293 | Mean Diff. of fold change (K65R + M184V vs K70R_3_TAMs): −0.2972 | Mean Diff. of fold change (K65R + M184V vs T215Y_3_TAMs): −0.004258 | Mean Diff. of fold change (K65R + M184V vs T215Y_3_TAMs_118): 0.05968 | Mean Diff. of fold change (K65R + M184V vs T215Y_3_TAMs_208): 0.06005 | Mean Diff. of fold change (K65R + M184V vs T215Y_3_TAMs_no118): −0.04688 | Mean Diff. of fold change (K65R + M184V vs T215Y_3_TAMs_no208): −0.01451 | Mean Diff. of fold change (K65R vs K65R + M184V): 0.1129 | Mean Diff. of fold change (K65R vs K70R_3_TAMs): −0.1843 | Mean Diff. of fold change (K65R vs M184V): −0.1549 | Mean Diff. of fold change (K65R vs T69): −0.2519 | Mean Diff. of fold change (K65R vs T215Y_3_TAMs): 0.1086 | Mean Diff. of fold change (K65R vs T215Y_3_TAMs_118): 0.1725 | Mean Diff. of fold change (K65R vs T215Y_3_TAMs_208): 0.1729 | Mean Diff. of fold change (K65R vs T215Y_3_TAMs_no118): 0.06597 | Mean Diff. of fold change (K65R vs T215Y_3_TAMs_no208): 0.09835 | Mean Diff. of fold change (K70R_3_TAMs vs T215Y_3_TAMs_118): 0.3569 | Mean Diff. of fold change (K70R_3_TAMs vs T215Y_3_TAMs_no118): 0.2503 | Mean Diff. of fold change (M184V vs K65R + M184V): 0.2677 | Mean Diff. of fold change (M184V vs K70R_3_TAMs): −0.02944 | Mean Diff. of fold change (M184V vs T69): −0.09699 | Mean Diff. of fold change (M184V vs T215Y_3_TAMs): 0.2635 | Mean Diff. of fold change (M184V vs T215Y_3_TAMs_118): 0.3274 | Mean Diff. of fold change (M184V vs T215Y_3_TAMs_208): 0.3278 | Mean Diff. of fold change (M184V vs T215Y_3_TAMs_no118): 0.2209 | Mean Diff. of fold change (M184V vs T215Y_3_TAMs_no208): 0.2532 | Mean Diff. of fold change (T69 vs K65R + M184V): 0.3647 | Mean Diff. of fold change (T69 vs K70R_3_TAMs): 0.06756 | Mean Diff. of fold change (T69 vs T215Y_3_TAMs): 0.3605 | Mean Diff. of fold change (T69 vs T215Y_3_TAMs_118): 0.4244 | Mean Diff. of fold change (T69 vs T215Y_3_TAMs_208): 0.4248 | Mean Diff. of fold change (T69 vs T215Y_3_TAMs_no118): 0.3179 | Mean Diff. of fold change (T69 vs T215Y_3_TAMs_no208): 0.3502 | Mean Diff. of fold change (T215Y_3_TAMs vs K70R_3_TAMs): −0.2929 | Mean Diff. of fold change (T215Y_3_TAMs vs T215Y_3_TAMs_118): 0.06394 | Mean Diff. of fold change (T215Y_3_TAMs vs T215Y_3_TAMs_208): 0.06431 | Mean Diff. of fold change (T215Y_3_TAMs vs T215Y_3_TAMs_no118): −0.04263 | Mean Diff. of fold change (T215Y_3_TAMs vs T215Y_3_TAMs_no208): −0.01025 | Mean Diff. of fold change (T215Y_3_TAMs_208 vs K70R_3_TAMs): −0.3572 | Mean Diff. of fold change (T215Y_3_TAMs_208 vs T215Y_3_TAMs_118): −0.0003693 | Mean Diff. of fold change (T215Y_3_TAMs_208 vs T215Y_3_TAMs_no118): −0.1069 | Mean Diff. of fold change (T215Y_3_TAMs_208 vs T215Y_3_TAMs_no208): −0.07456 | Mean Diff. of fold change (T215Y_3_TAMs_no118 vs T215Y_3_TAMs_118): 0.1066 | Mean Diff. of fold change (T215Y_3_TAMs_no208 vs K70R_3_TAMs): −0.2827 | Mean Diff. of fold change (T215Y_3_TAMs_no208 vs T215Y_3_TAMs_118): 0.07419 | Mean Diff. of fold change (T215Y_3_TAMs_no208 vs T215Y_3_TAMs_no118): −0.03237 | mean fold change (FC) compared to the WT population (all groups containing NAMs or the combination of TAMs shown in Table 1, p<0.0001, Student's T-test): significantly lower | Mean Diff. of fold change (wt vs 1 NAM): 0.2652 | Mean Diff. of fold change (wt vs 2 NAMs): 0.4373 | Mean Diff. of fold change (wt vs 3 NAMs): 0.3908 | Mean Diff. of fold change (wt vs K65R): 0.4217 | Mean Diff. of fold change (wt vs K65R + M184V): 0.5346 | Mean Diff. of fold change (wt vs K70R_3_TAMs): 0.2374 | Mean Diff. of fold change (wt vs M184V): 0.2668 | Mean Diff. of fold change (wt vs T69): 0.1698 | Mean Diff. of fold change (wt vs T215Y_3_TAMs): 0.5303 | Mean Diff. of fold change (wt vs T215Y_3_TAMs_118): 0.5942 | Mean Diff. of fold change (wt vs T215Y_3_TAMs_208): 0.5946 | Mean Diff. of fold change (wt vs T215Y_3_TAMs_no118): 0.4877 | Mean Diff. of fold change (wt vs T215Y_3_TAMs_no208): 0.5201
